Read-outs that look alike come from different tables or passages of the source.
How the values were obtained:
[1] = test system: Myzus persicae; experiment: Myzus persicae spray test; assay type: in vivo; settings: 500 g/ha; Chinese cabbage leaf discs; after 6 days
Method: Myzus persicae—Spray Test
Solvent: 78 parts by weight of acetone • • 1.5 parts by weight of dimethylformamide
(§1) Emulsifier: alkylaryl polyglycol ether
(§2) To produce an appropriate active ingredient formulation, 1 part by weight of active ingredient is dissolved using the stated parts by weight of solvent and made up with water containing an emulsifier concentration of 1000 ppm until the desired concentration is attained. To produce further test concentrations, the preparation is diluted with emulsifier-containing water.
Discs of Chinese cabbage leaves (Brassica pekinensis) infested by all stages of the green peach aphid (Myzus persicae) are sprayed with an active ingredient formulation of the desired concentration.
After 6 days, the efficacy in % is determined 100% means that all the aphids have been killed; 0% means that no aphids have been killed.

[2] = Determination of log P values by HPLC (reversed-phase C18); assay type: physicochemical; settings: for chromatographic logP: reversed-phase C18 HPLC column
How it was run: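 Log P per EEC Directive 79/831 Annex V.A8 by reversed-phase C18 HPLC at 55 °C, […], gradient 10→95% acetonitrile in 4.25 min. Calibrated with unbranched alkan-2-ones (C3–C16) by retention-time interpolation; lambda max from UV spectra 200–400 nm.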

[3] = test system: Boophilus microplus; experiment: Boophilus microplus injection test; assay type: in vivo; settings: 20 μg/animal injected into engorged adult female cattle ticks; assessed after 7 days by laying of fertile eggs
Method: Boophilus microplus—Injection Test
(§3) Solvent: dimethyl sulphoxide
To produce an appropriate active ingredient formulation, 10 mg of active ingredient are mixed with 0.5 ml of solvent and the concentrate is diluted with solvent to the desired concentration.
1 μl of the active ingredient solution is injected into the abdomen of 5 engorged adult female cattle ticks (Boophilus microplus). The animals are transferred into dishes and kept in a climate-controlled room.
Efficacy is assessed after 7 days by laying of fertile eggs. Eggs which are not visibly fertile are stored in a climate-controlled cabinet for about another 42 days until the larvae hatch. An efficacy of 100% means that none of the ticks has laid any fertile eggs; 0% means that all the eggs are fertile.

[4] = test system: Lucilia cuprina; experiment: Lucilia cuprina test; assay type: in vivo; settings: 100 ppm; L1 larvae; after 2 days
Method: Lucilia cuprina Test Solvent: dimethyl sulphoxide To produce an appropriate active ingredient formulation, 10 mg of active ingredient are mixed with 0.5 ml of dimethyl sulphoxide, and the concentrate is diluted with water to the desired concentration. About 20 L1 larvae of the Australian sheep blowfly (Lucilia cuprina) are transferred into a test vessel containing minced horsemeat and the active ingredient preparation of the desired concentration. After 2 days, the kill in % is determined 100% means that all the larvae have been killed; 0% means that no larvae have been killed.

[5] = test system: Musca domestica; experiment: Musca domestica test; assay type: in vivo; settings: 100 ppm; adult houseflies; after 2 days
Method: Musca domestica Test Solvent: dimethyl sulphoxide To produce an appropriate active ingredient formulation, 10 mg of active ingredient are mixed with 0.5 ml of dimethyl sulphoxide, and the concentrate is diluted with water to the desired concentration. Vessels containing a sponge treated with sugar solution and the active ingredient formulation of the desired concentration are populated with 10 adult houseflies (Musca domestica). After 2 days, the kill in % is determined 100% means that all of the flies have been killed; 0% means that none of the flies have been killed.

[6] = test system: Meloidogyne incognita; experiment: Meloidogyne incognita test (MELGIN); assay type: in vivo; settings: 20 ppm; lettuce; after 14 days
Method: Meloidogyne incognita Test (MELGIN) Solvent: 125.0 parts by weight of acetone To produce a suitable active ingredient formulation, 1 part by weight of active ingredient is mixed with the stated amount of solvent and the concentrate is diluted with water to the desired concentration. Vessels are filled with sand, active ingredient solution, an egg/larvae suspension of the southern root-knot nematode (Meloidogyne incognita) and lettuce seeds. The lettuce seeds germinate and the plants develop. The galls develop on the roots. After 14 days, the nematicidal efficacy in % is determined by the formation of galls. 100% means that no galls were found; 0% means that the number of galls on the treated plants corresponds to the untreated control.

[7] = test system: Tetranychus urticae; experiment: Tetranychus urticae spray test, OP-resistant; assay type: in vivo; settings: 500 g/ha, bean leaf discs, after 6 days
Method: Tetranychus urticae—Spray Test, OP-Resistant
Solvent: 78.0 parts by weight of acetone • • 1.5 parts by weight of dimethylformamide
as §1, §2
Discs of bean leaves (Phaseolus vulgaris) infested by all stages of the greenhouse red spider mite (Tetranychus urticae) are sprayed with an active ingredient formulation of the desired concentration.
After 6 days, the efficacy in % is determined. 100% means that all the spider mites have been killed; 0% means that no spider mites have been killed.

[8] = test system: Cooperia curticei; experiment: Cooperia curticei test; assay type: in vivo; settings: 20 ppm; nematode larvae; after 5 days
Method: as §3
To produce an appropriate active ingredient formulation, 10 mg of active ingredient are mixed with 0.5 ml of dimethyl sulphoxide and the concentrate is diluted with “Ringer's solution” to the desired concentration.
Vessels containing the active ingredient formulation of the desired concentration are populated with about 40 nematode larvae (Cooperia curticei).
After 5 days, the kill in % is determined 100% means that all the larvae have been killed; 0% means that none of the larvae have been killed.

[9] = test system: Haemonchus contortus; experiment: Haemonchus contortus test; assay type: in vivo; settings: 20 ppm; larvae; after 5 days
Method: Haemonchus contortus Test Solvent: dimethyl sulphoxide To produce an appropriate active ingredient formulation, 10 mg of active ingredient are mixed with 0.5 ml of dimethyl sulphoxide and the concentrate is diluted with “Ringer's solution” to the desired concentration. Vessels containing the active ingredient formulation of the desired concentration are populated with about 40 larvae of the red stomach worm (Haemonchus contortus). After 5 days, the kill in % is determined 100% means that all the larvae have been killed; 0% means that none of the larvae have been killed.

[10] = HPLC, reversed-phase C18, 55° C., final compounds table

SMILES	log P neutral [2, 10]	efficacy [3] [%]	efficacy (kill) [4] [%]	efficacy (kill) [5] [%]	nematicidal efficacy (formation of galls) [6] [%]	further results
O=C(Nc1ncn(-c2ccccc2Br)n1)c1ccccc1I [Compound I-1-72]	2.09					efficacy [1]: 90%
O=C(Nc1ncn(-c2c(F)cccc2F)n1)c1nccnc1C(F)(F)F [Compound I-1-24]	1.73	100	100	80	100	
Cc1cc(C)c([S+]([O-])CC(F)(F)F)cc1-n1cnc(NC(=O)c2ccccc2C(F)(F)F)n1 (stereo not shown) [Compound I-1-90]	2.31					efficacy [7]: 95%
O=C(Nc1ncn(-c2c(F)cccc2F)n1)c1ccccc1C(F)(F)F [Compound I-1-11, 2-Trifluoromethyl-N-[1-(2,6-difluorophenyl)-1H-1,2,4-triazol-3-yl]benzamide]		100	100	80	90	chromatographic logP ([2]; pH 3.4, HPLC-MS, preparation examples, read-out: log P): 1.97; chromatographic logP ([2]; HPLC, reversed-phase C18, 55° C., final compounds table, read-out: log P neutral): 1.97
O=C(Nc1ncn(-c2c(F)cccc2F)n1)c1ccccc1I [Compound I-1-21]	1.89				100	efficacy (kill) [8]: 100%; efficacy (kill) [9]: 80%

— patent US9920017B2, “Heterocyclic compounds as pesticides” (BAYER CROPSCIENCE AKTIENGESELLSCHAFT, priority 2014, dated 2018)
